Patent publication US20240025884A1 (Dong-A ST Co., Ltd., priority 2022, published 2024)

These compounds were tested against GCN2 (Homo sapiens (Human), UniProt Q9P2K8) (assay: GCN2 Biochemical Assay (TR-FRET, GFP-eIF2S1 substrate phosphorylation)). Settings: read-out: IC50 (GCN2 Inhibitory Activity).
Summary of the method: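 In-house GCN2 (1.6 nM 2× stock) phosphorylates GFP-eIF2S1 (50 nM 2× stock) with ATP (0.2 mM 2× stock) and tRNA, pH 7.5, 70 min at room temperature; 10-point 3.16-fold compound series. TR-FRET detection with Tb-anti-phospho antibody, 2–3 h, Ex 340/Em 490/520 nm; artifact plate spiked with phospho-substrate.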

Sequence of GCN2 (Q9P2K8 whole entry): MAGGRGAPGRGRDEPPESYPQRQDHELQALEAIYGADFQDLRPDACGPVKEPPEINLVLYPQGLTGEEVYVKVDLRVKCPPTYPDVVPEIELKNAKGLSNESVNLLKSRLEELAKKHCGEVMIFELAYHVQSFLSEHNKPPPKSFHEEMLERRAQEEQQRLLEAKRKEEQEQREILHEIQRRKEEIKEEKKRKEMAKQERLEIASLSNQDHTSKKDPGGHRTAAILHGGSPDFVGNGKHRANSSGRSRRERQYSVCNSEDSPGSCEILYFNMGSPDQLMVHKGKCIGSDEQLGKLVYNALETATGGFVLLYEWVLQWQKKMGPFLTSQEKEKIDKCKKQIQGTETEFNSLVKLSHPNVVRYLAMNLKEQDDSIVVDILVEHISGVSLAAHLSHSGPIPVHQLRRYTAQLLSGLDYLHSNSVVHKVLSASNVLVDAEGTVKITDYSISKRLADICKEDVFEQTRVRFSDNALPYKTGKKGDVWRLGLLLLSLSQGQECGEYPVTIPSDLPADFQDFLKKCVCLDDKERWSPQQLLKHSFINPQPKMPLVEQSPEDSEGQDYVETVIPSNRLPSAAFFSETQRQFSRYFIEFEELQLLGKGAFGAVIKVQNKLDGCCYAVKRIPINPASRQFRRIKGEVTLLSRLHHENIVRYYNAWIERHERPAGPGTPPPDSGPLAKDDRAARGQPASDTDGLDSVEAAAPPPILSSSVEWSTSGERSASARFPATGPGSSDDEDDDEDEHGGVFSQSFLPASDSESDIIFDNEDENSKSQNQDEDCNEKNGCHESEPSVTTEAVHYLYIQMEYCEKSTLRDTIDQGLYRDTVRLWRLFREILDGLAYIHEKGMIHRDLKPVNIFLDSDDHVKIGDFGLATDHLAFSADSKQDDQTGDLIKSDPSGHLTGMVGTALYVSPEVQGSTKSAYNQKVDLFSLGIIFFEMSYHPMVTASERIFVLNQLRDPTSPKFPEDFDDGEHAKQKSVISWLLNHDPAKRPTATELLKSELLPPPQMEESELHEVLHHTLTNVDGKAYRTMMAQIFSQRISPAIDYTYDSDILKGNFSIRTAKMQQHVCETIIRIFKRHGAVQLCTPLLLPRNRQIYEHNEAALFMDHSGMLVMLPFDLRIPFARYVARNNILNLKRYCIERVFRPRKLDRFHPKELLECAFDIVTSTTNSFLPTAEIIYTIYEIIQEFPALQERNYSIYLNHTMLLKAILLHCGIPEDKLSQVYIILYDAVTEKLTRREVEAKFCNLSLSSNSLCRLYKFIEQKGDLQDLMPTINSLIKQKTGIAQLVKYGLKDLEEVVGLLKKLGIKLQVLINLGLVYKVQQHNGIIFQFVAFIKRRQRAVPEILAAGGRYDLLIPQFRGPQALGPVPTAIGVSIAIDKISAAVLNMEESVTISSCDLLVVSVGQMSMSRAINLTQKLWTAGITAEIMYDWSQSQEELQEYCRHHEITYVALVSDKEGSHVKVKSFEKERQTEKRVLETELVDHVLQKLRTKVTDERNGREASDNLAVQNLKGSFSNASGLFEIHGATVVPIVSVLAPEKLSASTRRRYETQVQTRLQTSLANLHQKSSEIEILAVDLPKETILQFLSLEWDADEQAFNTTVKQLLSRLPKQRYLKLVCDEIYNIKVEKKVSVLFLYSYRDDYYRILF

Structure (SMILES) | IC50 [nM]
Cc1cnc(Nc2cc(C)n(C)n2)nc1-c1c[nH]c2c(NC(=O)CN3CC[C@H](Oc4cc(C5=CCC(C)(C)CC5)ncn4)C3)cccc12 [Example 250] | 100 to 1000
Cc1cnc(Nc2cc(C)n(C)n2)nc1-c1c[nH]c2c(NC(=O)CN3CC[C@H](Oc4cc(C5=CCOCC5)ncn4)C3)cccc12 [Example 251, (S)-2-(3-((6-(3,6-dihydro-2H-pyran-4-yl)pyrimidin-4-yl)oxy)pyrrolidin-1-yl)-N-(3-(2-((1,5-dimethyl-1H-pyrazol-3-yl)amino)-5-methylpyrimidin-4-yl)-1H-indol-7-yl)acetamide] | 10 to 100
Cc1cnc(Nc2cc(C)n(C)n2)nc1-c1c[nH]c2c(NC(=O)CN3CC[C@H](Oc4nccc(C5=CCC(C)(C)CC5)n4)C3)cccc12 [Example 252, (S)-N-(3-(2-((1,5-dimethyl-1H-pyrazol-3-yl)amino)-5-methylpyrimidin-4-yl)-1H-indol-7-yl)-2-(3-((4-(4,4-dimethylcyclohex-1-en-1-yl)pyrimidin-2-yl)oxy)pyrrolidin-1-yl)acetamide] | 10 to 100
Cc1cnc(Nc2cc(C)n(C)n2)nc1-c1c[nH]c2c(NC(=O)CN3CC[C@H](Oc4nccc(C5=CCOCC5)n4)C3)cccc12 [Example 253, (S)-2-(3-((4-(3,6-dihydro-2H-pyran-4-yl)pyrimidin-2-yl)oxy)pyrrolidin-1-yl)-N-(3-(2-((1,5-dimethyl-1H-pyrazol-3-yl)amino)-5-methylpyrimidin-4-yl)-1H-indol-7-yl)acetamide] | 10 to 100
Cc1cnc(Nc2cc(C)n(C)n2)nc1-c1c[nH]c2c(NC(=O)CN3CC[C@H](Oc4nccc(-c5ccccc5)n4)C3)cccc12 [Example 254, (S)-N-(3-(2-((1,5-dimethyl-1H-pyrazol-3-yl)amino)-5-methylpyrimidin-4-yl)-1H-indol-7-yl)-2-(3-((4-phenylpyrimidin-2-yl)oxy)pyrrolidin-1-yl)acetamide] | 10 to 100
Cc1cnc(Nc2cc(C)n(C)n2)nc1-c1c[nH]c2c(NC(=O)CN3CC[C@H](Oc4ncc(-c5cccnc5)cn4)C3)cccc12 [Example 255, (S)-N-(3-(2-((1,5-dimethyl-1H-pyrazol-3-yl)amino)-5-methylpyrimidin-4-yl)-1H-indol-7-yl)-2-(3-((5-(pyridin-3-yl)pyrimidin-2-yl)oxy)pyrrolidin-1-yl)acetamide] | 10 to 100
Cc1cnc(Nc2cc(C)n(C)n2)nc1-c1c[nH]c2c(NC(=O)CN3CC[C@H](Oc4ncc(-c5ccncc5)cn4)C3)cccc12 [Example 256, (S)-N-(3-(2-((1,5-dimethyl-1H-pyrazol-3-yl)amino)-5-methylpyrimidin-4-yl)-1H-indol-7-yl)-2-(3-((5-(pyridin-4-yl)pyrimidin-2-yl)oxy)pyrrolidin-1-yl)acetamide] | 10 to 100
Cc1cnc(Nc2cc(C)n(C)n2)nc1-c1c[nH]c2c(NC(=O)CN3CC[C@H](Oc4cnc(-c5cccnc5)nc4)C3)cccc12 [Example 258, (S)-N-(3-(2-((1,5-dimethyl-1H-pyrazol-3-yl)amino)-5-methylpyrimidin-4-yl)-1H-indol-7-yl)-2-(3-((2-(pyridin-3-yl)pyrimidin-5-yl)oxy)pyrrolidin-1-yl)acetamide] | 10 to 100
Cc1cnc(Nc2cc(C)n(C)n2)nc1-c1c[nH]c2c(NC(=O)CN3CC[C@H](Oc4cnc(-c5ccncc5)nc4)C3)cccc12 [Example 259, (S)-N-(3-(2-((1,5-dimethyl-1H-pyrazol-3-yl)amino)-5-methylpyrimidin-4-yl)-1H-indol-7-yl)-2-(3-((2-(pyridin-4-yl)pyrimidin-5-yl)oxy)pyrrolidin-1-yl)acetamide] | 10 to 100

The next lines start with the values.

IC50 [nM] | Structure (SMILES)
10 to 100 | CCCNc1cncc(O[C@H]2CCN(CC(=O)Nc3cccc4c(-c5nc(Nc6cc(C)n(C)n6)ncc5C)c[nH]c34)C2)n1 [Example 245, (S)-N-(3-(2-((1,5-dimethyl-1H-pyrazol-3-yl)amino)-5-methylpyrimidin-4-yl)-1H-indol-7-yl)-2-(3-((6-(propylamino)pyrazin-2-yl)oxy)pyrrolidin-1-yl)acetamide]
10 to 100 | Cc1cnc(Nc2cc(C)n(C)n2)nc1-c1c[nH]c2c(NC(=O)CN3CC[C@H](Oc4cncc(NCCO)n4)C3)cccc12 [Example 246, (S)-N-(3-(2-((1,5-dimethyl-1H-pyrazol-3-yl)amino)-5-methylpyrimidin-4-yl)-1H-indol-7-yl)-2-(3-((6-((2-hydroxyethyl)amino)pyrazin-2-yl)oxy)pyrrolidin-1-yl)acetamide]
< 10 | Cc1cnc(Nc2cc(C)n(C)n2)nc1-c1c[nH]c2c(NC(=O)CN3CC[C@H](Oc4cncc(NCCN(C)C)n4)C3)cccc12 [Example 247, (S)-N-(3-(2-((1,5-dimethyl-1H-pyrazol-3-yl)amino)-5-methylpyrimidin-4-yl)-1H-indol-7-yl)-2-(3-((6-((2-(dimethylamino)ethyl)amino)pyrazin-2-yl)oxy)pyrrolidin-1-yl)acetamide]
10 to 100 | Cc1cnc(Nc2cc(C)n(C)n2)nc1-c1c[nH]c2c(NC(=O)CN3CC[C@H](Oc4cc(-c5ccccc5)ncn4)C3)cccc12 [Example 248, (S)-N-(3-(2-((1,5-dimethyl-1H-pyrazol-3-yl)amino)-5-methylpyrimidin-4-yl)-1H-indol-7-yl)-2-(3-((6-phenylpyrimidin-4-yl)oxy)pyrrolidin-1-yl)acetamide]
< 10 | Cc1cnc(Nc2cc(C)n(C)n2)nc1-c1c[nH]c2c(NC(=O)CN3CC[C@H](Oc4cc(-c5cnn(C)c5)ncn4)C3)cccc12 [Example 249, (S)-N-(3-(2-((1,5-dimethyl-1H-pyrazol-3-yl)amino)-5-methylpyrimidin-4-yl)-1H-indol-7-yl)-2-(3-((6-(1-methyl-1H-pyrazol-4-yl)pyrimidin-4-yl)oxy)pyrrolidin-1-yl)acetamide]
< 10 | Cc1cnc(Nc2cc(C)n(C)n2)nc1-c1c[nH]c2c(N3C(=O)c4ccccc4C3=O)cccc12 [Example 260, 2-(3-(2-((1,5-dimethyl-1H-pyrazol-3-yl)amino)-5-methylpyrimidin-4-yl)-1H-indol-7-yl)isoindoline-1,3-dione]
< 10 | Cc1cnc(Nc2cc(C)n(C)n2)nc1-c1c[nH]c2c(N3C(=O)c4cccc(F)c4C3=O)cccc12 [Example 261, 2-(3-(2-((1,5-dimethyl-1H-pyrazol-3-yl)amino)-5-methylpyrimidin-4-yl)-1H-indol-7-yl)-4-fluoroisoindoline-1,3-dione]
< 10 | Cc1cnc(Nc2cc(C)n(C)n2)nc1-c1c[nH]c2c(N3C(=O)c4cccc(Br)c4C3=O)cccc12 [Example 262, 4-bromo-2-(3-(2-((1,5-dimethyl-1H-pyrazol-3-yl)amino)-5-methylpyrimidin-4-yl)-1H-indol-7-yl)isoindoline-1,3-dione]
< 10 | Cc1cnc(Nc2cc(C)n(C)n2)nc1-c1c[nH]c2c(N3C(=O)c4cccc(O)c4C3=O)cccc12 [Example 263, 2-(3-(2-((1,5-dimethyl-1H-pyrazol-3-yl)amino)-5-methylpyrimidin-4-yl)-1H-indol-7-yl)-4-hydroxyisoindoline-1,3-dione]
< 10 | Cc1cnc(Nc2cc(C)n(C)n2)nc1-c1c[nH]c2c(N3C(=O)c4ccc([N+](=O)[O-])cc4C3=O)cccc12 [Example 264, 2-(3-(2-((1,5-dimethyl-1H-pyrazol-3-yl)amino)-5-methylpyrimidin-4-yl)-1H-indol-7-yl)-5-nitroisoindoline-1,3-dione]
